The test system of experiment [1] is partially purified α-H-α-amino acid amide racemase from O. anthropi IA. Nature of the experiment: Substrate specificity of the partially purified racemase (Example 8). Also noted: tested at 75 mM. Particulars: relative to the activity towards L-leucine amide; pH 8.0, 37° C. It is filed as biochemical, Ochrobactrum anthropi IA. The method, then: The substrate specificity of the O. anthropi IA α-H-α-amino acid amide racemase was determined using the partially purified enzyme preparation obtained by the protocol described above. Reaction mixtures of 1 ml total volume were prepared by mixing 772 μl of 66.6 mM HEPES-NaOH, pH 8.0, 10 μl of 0.1 M dithiothreitol, 18 μl of a solution containing 20 mg/ml BSA and 1 mM pyridoxal-5-phosphate, and 100 μl of a 0.75 M substrate solution, pH 8.0. After equilibration for 5 minutes at 37° C., the reactions were started by the addition of 100 μl of the enzyme solution. Reaction mixtures were incubated at 37° C. without shaking. After regular time intervals, samples of 50 μl were taken and transferred into vials containing 950 μl of 1 M H3PO4 to stop the reaction. After sufficient dilution of the samples in 0.4 M borate buffer pH 9.4, the mixtures obtained were analyzed using HPLC to determine the exact concentrations of two amino acid amide enantiomers according to the method of Example 7.
Initial activity for the different substrates tested was calculated from the linear parts of the progress curves, in which the amount of the amino acid amide enantiomer formed (so with a stereochemistry opposite to the substrate molecule) was plotted against the reaction time.

Experiment [2] deals with T1, α-amino-ε-caprolactam racemase from Achromobacter obae (Achromobacter obae, UniProt Q7M181).
T1 sequence (Q7M181 1-436): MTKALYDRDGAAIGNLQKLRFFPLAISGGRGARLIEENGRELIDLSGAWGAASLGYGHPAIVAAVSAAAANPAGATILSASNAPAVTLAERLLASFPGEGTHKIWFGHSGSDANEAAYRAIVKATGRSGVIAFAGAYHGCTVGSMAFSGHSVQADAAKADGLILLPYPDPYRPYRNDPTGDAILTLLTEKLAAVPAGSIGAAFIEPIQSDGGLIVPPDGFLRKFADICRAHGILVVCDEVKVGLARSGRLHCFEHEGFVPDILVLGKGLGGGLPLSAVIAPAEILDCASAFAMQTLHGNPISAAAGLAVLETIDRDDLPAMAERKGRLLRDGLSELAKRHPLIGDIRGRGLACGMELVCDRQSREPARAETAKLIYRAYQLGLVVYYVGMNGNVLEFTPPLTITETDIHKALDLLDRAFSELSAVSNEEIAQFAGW
Particulars: even when an excess amount of enzyme was used; cited from earlier work.

For experiment [3], the system named is lyophilized O. anthropi IA cells. Nature of the experiment: α-H-α-amino acid amide racemase activity of lyophilized O. anthropi IA cells. It is filed as biochemical, Ochrobactrum anthropi IA. Conditions: approximately 72 hours at 40° C., 10 times diluted reaction mixture. On the procedure: O. anthropi IA cells were cultivated in Medium A containing DL-α-amino-ε-caprolactam (2 g/l) as sole nitrogen source. After incubation at 28° C. and 200 rpm for three days (OD620 nm=4.7), cells were harvested by centrifugation, washed in 20 mM HEPES-NaOH buffer of pH 7.7 and lyophilized.
The assay mixture consisted of 10 mM HEPES-NaOH buffer (pH 7.7) containing toluene (2,5 v/v %), pyridoxal-5-phosphate (20 μM), D- or L-leucine amide (2.5 m %) and in some cases EDTA (20 mM). Per assay 150 mg of lyophilized cells were used. Chemical blanks (with the assay mixture without the O. anthropi IA cells) were used as a negative control. All reaction mixtures (including the blanks) were incubated for approximately 72 hours at 40° C. before the reaction was stopped by the addition of 9 volumes of 1 M H3PO4. Finally, the reaction mixtures were analyzed by HPLC to determine the concentrations of D- and L-leucine amide and of D- and L-leucine. o-Phthaldehyde in combination with D-3-mercapto-2-methylpropionic acid was used in this HPLC method as a chiral reagent for the enantioseparation of these amino compounds (Duchateau, et al., J. Chromatogr. (1992) 623:237-245).
In a number of reactions EDTA was added to inhibit L- and/or D-specific amidase(s) present in the O. anthropi IA cells.
Without EDTA, amidases convert the substrate and/or product α-H-α-amino acid amides into α-H-α-amino acids thereby preventing direct detection of the other α-H-α-amino acid amide enantiomer as racemization product. […] Formation of L-leucine from D-leucine amide could not be detected in the chemical blank.

Experiment [4] relates to α-H-α-amino acid amide racemase from Ochrobactrum anthropi IA. Nature of the experiment: Substrate specificity, CFE from E. coli TOP10/pKEC_AZAR_3 (Example 7). Particulars: relative to the activity towards D-leucine amide; 75 mM substrate, 20 mM EDTA, pH 8.0, 37° C. Type of experiment: biochemical. On the procedure: Two pre-cultures of E. coli TOP10/pKEC_AZAR—3 (see Example 4) were prepared by inoculation of 2 erlenmeyer flasks with 100 ml of 2*TY medium (10 g/l Yeast extract, 16 g/l Tryptone, 5 g/l NaCl) containing 50 mg/l of kanamycin with 10 μl of a glycerol stock per flask. After overnight cultivation at 28° C. and 200 rpm, the pre-cultures were pooled, and subsequently used to inoculate 2 erlenmeyer flasks each containing 1 l of the same medium. Also these flasks were cultivated at 28° C. and 200 rpm for 16-18 h. Cells were harvested by centrifugation (15 min. at 6,200×g, 4° C.), washed with 20 mM HEPES-NaOH, pH 7.5, pooled, weighed, and resuspended in a solution containing 20 mM HEPES-NaOH, pH 7.5, 20 μM pyridoxal-5-phosphate, and 1.3 mM of dithiothreitol in a 1:3 ratio of wet weight cells to solution. Then, cells were disintegrated by 10 min. sonification with a Soniprep 150 of MSE operated at maximum amplitude using time intervals of 10 sec. (i.e., 10 sec. sonification, 10 sec. cooling) and cooling in ice/acetone. Particles were removed by centrifugation, after which sucrose was added to the cell free extract to a final concentration of 0.25 M. The resulting cell free extract (CFE) was stored in aliquots at −20° C. E. coli TOP10/pBAD/Myc-HisC (Invitrogen) cells were treated in exactly the same way and served as negative control.
The substrate specificity of the α-H-α-amino acid racemase from O. anthropi IA was determined by measuring the racemase activity of the above-mentioned CFE towards a number of enantiomerically pure amino acid amides. Each reaction mixture of 10 ml (including the CFE) contained 50 mM HEPES-NaOH, pH 8.0, 20 μM pyridoxal-5-phosphate, 0.4 mg/ml BSA, 1 mM dithiothreitol, 20 mM EDTA and 75 mM of one of the amino acid amides tested. Reactions were started by the addition of 1 ml of the thawed CFE of E. coli TOP10/pKEC_AZAR—3 or E. coli TOP10/pBAD/Myc-HisC (blank) and were incubated at 37° C. At regular time intervals samples of 1 ml were taken and transferred to vials containing 1 ml of 1M H3PO4 to stop the reaction. After sufficient dilution of the samples in 0.4 M borate buffer pH 9.4, the mixtures obtained were analyzed using HPLC to determine the exact concentrations of the two amino acid and two amino acid amide enantiomers according to the following method.
The initial activity for the different substrates tested was calculated from the linear parts of the progress curves, in which the conversion was plotted against the reaction time. Use of the linear part of the progress curves secured that only samples taken at time points at which the substrate concentration was still sufficiently high, were used for the calculations. The conversion was calculated by dividing the amount of amino acid and amino acid amide formed via the racemase reaction (so with the opposite stereochemistry compared to the substrate molecule) by the total amount of two amino acid enantiomers and the two amino acid amide enantiomers.

Experiment [5] deals with E. coli DH10B/pOA(1)PLV49B10 cells containing the α-H-α-amino acid amide racemase gene from Ochrobactrum anthropi IA. Put plainly: Racemase activity test with DL-leucine amide and whole E. coli cells (Example 6). Type of experiment: cell-based. Conditions: Strain A. On the procedure: To determine the activity of E. coli/pOA(1)PLV49B10 and the E. coli control, the above-mentioned cell pellets were thawed and resuspended to a total volume of 1 ml with 50 mM HEPES-NaOH buffer, pH 7.7. Then, reaction mixtures of 10 ml each were prepared containing 50 mM HEPES-NaOH buffer (pH 7.7), 10 μM pyridoxal-5-phosphate (PLP), 2.5 wt % of D-leucine amide, if applicable 20 mM of EDTA to suppress the E. coli amidase activity, and 0.5 ml of the E. coli/pOA(1)PLV49B10 and E. coli DH10B/pZErO-GFPuv-wrong-orientation cell suspensions or water (for chemical blanks). Reactions were started by the addition of the cells. Reaction mixtures were incubated at 30° C. and 175 rpm. Directly after addition of the cells (t=0 hours) and after 27 and 43 hours samples were taken in which the reaction was stopped by removal of the cells via centrifugation followed by 0.22 μM filtration. Finally, the filtered samples were stored at −20° C. until analysis by chiral HPLC as described below: • column: Sumichiral OA5000 from Sumika (150×4.6 mm I.D., 5μ)+guard column • eluent: 85 v/v % 2 mM CuSO4+15 v/v % methanol • flow: 1.0 ml/min. • column temp.: 40° C. • inj. volume: 5 μl • detection: fluorescence detection after post-column reaction with o-phthalaldehyde and 2-mercaptoethanol (wavelength ex=338 nm and em>420 nm)
The E. coli DH10B/pOA(1)PLV49B10 and E. coli DH10B/pZErO-GFPuv-wrong-orientation cell suspensions from Example 5 (Preparation of the cells) were used. To determine their activity towards racemic DL-leucine amide, identical reaction mixtures were prepared as in Example 5, except that 2.5 wt % of DL-leucine amide was used, EDTA was omitted in all reactions, and the reactions were started with […] of the cell suspensions. Samples were taken directly after the start of the reactions (t=0 hours) and after 8 and 24 hours.

SMILES strings stand for the structures. Residues, ends and D or L forms follow the SMILES beside them.

This is an account of results in patent publication US7371555B2, “Polypeptides having α-H-α-amino acid amide racemase activity and nucleic acids encoding the same” (DSM IP Assets B.V., priority 2002, dated 2008).

As to `CC[C@H](C)[C@H](N)C(N)=O` [LL-isoleucine amide], the Rel. initial activity in experiment [1] amounted to 4.5%.
Consider `CC(C)C[C@H](N)C(=O)N[C@@H](C)C(=O)O` [L-leucyl-L-alanine] (H-Leu-Ala-OH), for which the “α-H-α-amino acid amide racemase activity” value in experiment [2] is on record as “no α-H-α-amino acid amide racemase activity was found”.
For the compound `CC(C)[C@H](N)C(=O)NCC(=O)O` [L-valyl-glycine] (H-Val-Gly-OH), in experiment [2], the “α-H-α-amino acid amide racemase activity” value was “no α-H-α-amino acid amide racemase activity was found”.
As to `C[C@H](N)C(N)=O` [L-alanine amide], the Rel. initial activity in experiment [1] amounted to 350%.
In the case of `CC(C)C[C@H](N)C(N)=O` [L-leucine amide], in experiment [1], the Rel. initial activity is listed as 100%. Besides, in experiment [3] (with EDTA (20 mM)), the D-leucine is reported as 0.003 m %, the D-leucine amide was determined as 0.021 m %, the L-leucine was 0.058 m % and the L-leucine amide was determined as 0.15 m %. For the same compound, in experiment [3] (without EDTA), the D-leucine is listed as 0.001 m %, the D-leucine amide is <0.001 m %, the L-leucine stood at 0.21 m % and the L-leucine amide was <0.001 m %. Also, in experiment [2], the “α-H-α-amino acid amide racemase activity” value is reported as “no α-H-α-amino acid amide racemase activity was found”.
As for `CC(C)[C@H](N)C(N)=O` [L-valine amide], the Rel. initial activity in experiment [1] stood at 4.5%.
Consider `CC(C)[C@H](N)C(=O)N[C@@H](C)C(=O)O` [L-valyl-L-alanine] (H-Val-Ala-OH), for which the “α-H-α-amino acid amide racemase activity” value in experiment [2] is “no α-H-α-amino acid amide racemase activity was found”.
With `NC(=O)[C@@H](N)CO` [L-serine amide], the Rel. initial activity in experiment [4] came out at 83%.
For `NC(=O)[C@@H](N)Cc1ccccc1` [L-phenylalanineamide], the Rel. initial activity in experiment [1] was determined as 4.5%.
Regarding `CC(C)C[C@H](N)C(=O)NCC(=O)O` [L-leucyl-glycine] (H-Leu-Gly-OH), the “α-H-α-amino acid amide racemase activity” value in experiment [2] is on record as “no α-H-α-amino acid amide racemase activity was found”.
In experiment [5] (incubation time 0 h), `CC(C)CC(N)C(N)=O` (racemic) [DL-leucine amide] registered a D-leucine of 0.001 wt %, a D-leucine amide of 1.19 wt %, a L-leucine of 0.003 wt % and a L-leucine amide of 1.25 wt %. Besides, in experiment [5] (incubation time 8 h), the D-leucine was 0.004 wt %, the D-leucine amide is listed as 1.24 wt %, the L-leucine came to 1.45 wt % and the L-leucine amide turned out to be 0.33 wt %. In experiment [5] (incubation time 24 h), this compound showed a D-leucine of 0.028 wt %, a D-leucine amide of 0.43 wt %, a L-leucine of 2.25 wt % and a L-leucine amide of 0.14 wt %.
On to `NC(=O)[C@H](N)CCCC1OCCO1` [D-2-amino-5-[1,3]dioxolan-2-yl-pentanoicacid amide], for which the Rel. initial activity in experiment [1] was 9.1%.
The same measure, in the same setting: next, `NC(=O)[C@H](N)c1ccccc1` [D-phenylglycineamide]: 9.1%.
For `NC(=O)[C@@H](N)Cc1c[nH]c2ccccc12` [L-tryptophan amide], in experiment [2], the “α-H-α-amino acid amide racemase activity” value is on record as “no α-H-α-amino acid amide racemase activity was found”.
On to `C[C@@H](N)C(N)=O` [D-alanine amide], for which the Rel. initial activity in experiment [4] is recorded as 85%.
For the compound `C[C@H](O)[C@H](N)C(N)=O` [LL-threonine amide], the Rel. initial activity in experiment [1] came to 100%.
